Results from US11857519B2, “Compounds and methods for the targeted degradation of enhancer of zeste homolog 2 polypeptide” (Arvinas Operations, Inc., priority 2016, dated 2024).

These compounds were tested against T1, EZH2 (Homo sapiens, UniProt Q15910) (assay: Cellular assay of target protein degradation (VCaP cells, ELISA)). Settings: 4 hours, protein degradation range at indicated concentration (relative to DMSO control).
T1 construct: Protocol of the Cellular Assay of Target Protein Degradation (VCaP Cells, ELISA); endogenous in cells; host or cells: VCaP cells
Assay type: cell-based
Experimental: Protocol of the Cellular Assay of Target Protein Degradation (VCaP Cells, ELISA).
For detection Cell Signaling PathScan Sandwich ELISA Catalog #12850 Lot 11 was used. VCaP cells were cultured in ATCC DMEM+ATCC FBS and plated 40,000/well 100 μl/well in RPMI P/S with 5% CSS Omega (bovine) serum into a 96 well plate. The cells were grown for a minimum of 3 days, dosed with compounds in 0.1% DMSO (diluted with 5% CSS) and incubated with aspiration for 4 hours. 100 μl of 1× Cell Signaling lysis buffer #9803 (36 mL dH2O+4 mL Cell Signaling lysis buffer) was added. The incubation was placed on cold room shaker for 10 minutes at speed 8-9. 5 μl to 100 μL of Diluent was transferred to ELISA plate (0.15 μg/mL−0.075 μg/mL) and stored at 4° C. overnight on cold room shaker speed 5 (gentle swirl) and then shaken next morning at 37° C. for 30 minutes. The preparation was washed 4×200 μl with ELISA wash buffer and aspirated with eight-channel aspirator. 100 μl/well of target protein detection antibody was added after, which the preparation was covered and shaken at 37° C. for 1 hour. 100 μl TMB was added, and the mixture was shaken for 5 min while under observation. When TMB turned light blue, 100 μl of Stop solution was added, and the mixture was shaken and read at 450 nm. Also read at 562 nm for background subtraction.

T1 sequence (Q15910 whole entry): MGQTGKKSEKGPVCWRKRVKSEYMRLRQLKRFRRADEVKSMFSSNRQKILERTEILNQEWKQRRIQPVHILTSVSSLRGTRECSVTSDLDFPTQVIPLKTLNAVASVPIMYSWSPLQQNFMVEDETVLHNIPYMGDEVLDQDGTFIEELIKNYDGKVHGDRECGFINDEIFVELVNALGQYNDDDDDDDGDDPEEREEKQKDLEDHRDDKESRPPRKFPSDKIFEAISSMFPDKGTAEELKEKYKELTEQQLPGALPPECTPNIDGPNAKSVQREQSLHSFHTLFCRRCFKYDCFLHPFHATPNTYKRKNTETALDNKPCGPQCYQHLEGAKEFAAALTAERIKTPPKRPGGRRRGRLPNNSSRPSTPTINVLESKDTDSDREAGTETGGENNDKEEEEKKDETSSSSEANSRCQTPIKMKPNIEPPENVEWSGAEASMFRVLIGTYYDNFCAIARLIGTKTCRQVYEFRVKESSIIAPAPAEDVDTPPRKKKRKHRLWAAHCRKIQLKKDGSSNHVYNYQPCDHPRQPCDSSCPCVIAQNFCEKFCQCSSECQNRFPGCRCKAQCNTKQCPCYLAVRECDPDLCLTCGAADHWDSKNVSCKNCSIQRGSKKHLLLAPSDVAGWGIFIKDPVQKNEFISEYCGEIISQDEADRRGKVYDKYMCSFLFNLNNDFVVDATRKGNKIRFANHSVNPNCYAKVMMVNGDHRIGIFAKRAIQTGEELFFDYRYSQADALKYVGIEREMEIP
T1 sequence (O75530 whole entry partner): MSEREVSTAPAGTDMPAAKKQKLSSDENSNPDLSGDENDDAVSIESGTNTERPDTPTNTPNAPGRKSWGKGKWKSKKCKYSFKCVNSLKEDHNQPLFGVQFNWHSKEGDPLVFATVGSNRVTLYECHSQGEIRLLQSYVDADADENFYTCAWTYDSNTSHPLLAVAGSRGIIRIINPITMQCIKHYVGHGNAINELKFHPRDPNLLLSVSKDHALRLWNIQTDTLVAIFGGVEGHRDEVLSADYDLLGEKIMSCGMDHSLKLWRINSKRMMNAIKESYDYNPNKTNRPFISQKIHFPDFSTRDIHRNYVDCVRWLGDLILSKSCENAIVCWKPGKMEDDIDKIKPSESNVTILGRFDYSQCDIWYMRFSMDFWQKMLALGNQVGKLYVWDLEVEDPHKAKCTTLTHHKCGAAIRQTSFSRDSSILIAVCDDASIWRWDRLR
T1 sequence (Q15022 whole entry partner): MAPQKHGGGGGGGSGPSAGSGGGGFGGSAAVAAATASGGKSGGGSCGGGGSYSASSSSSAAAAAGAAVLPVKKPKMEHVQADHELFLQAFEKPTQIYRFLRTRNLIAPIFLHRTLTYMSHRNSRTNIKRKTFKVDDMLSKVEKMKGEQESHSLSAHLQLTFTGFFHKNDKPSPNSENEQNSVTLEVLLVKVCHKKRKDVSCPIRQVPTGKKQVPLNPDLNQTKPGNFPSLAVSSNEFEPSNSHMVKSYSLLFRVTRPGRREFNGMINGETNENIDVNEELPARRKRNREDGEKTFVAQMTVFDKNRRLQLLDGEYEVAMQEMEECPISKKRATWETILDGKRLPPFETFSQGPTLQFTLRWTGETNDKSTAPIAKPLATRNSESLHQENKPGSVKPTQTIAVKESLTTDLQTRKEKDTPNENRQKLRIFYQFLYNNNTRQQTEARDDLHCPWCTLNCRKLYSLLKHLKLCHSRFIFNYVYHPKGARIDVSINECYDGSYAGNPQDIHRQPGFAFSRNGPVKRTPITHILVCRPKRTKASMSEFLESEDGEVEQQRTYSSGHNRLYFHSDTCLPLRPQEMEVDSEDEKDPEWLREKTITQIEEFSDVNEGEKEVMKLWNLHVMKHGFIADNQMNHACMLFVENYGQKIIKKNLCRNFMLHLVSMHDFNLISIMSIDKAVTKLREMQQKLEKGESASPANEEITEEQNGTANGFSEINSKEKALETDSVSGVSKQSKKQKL

With `CCN(c1cc(-c2ccc(N3CCN(CCCOCCOCC(=O)N[C@H](C(=O)N4C[C@H](O)C[C@H]4C(=O)N[C@@H](C)c4ccc(-c5scnc5C)cc4)C(C)(C)C)CC3)cc2)cc(C(=O)NCc2c(C)cc(C)[nH]c2=O)c1C)C1CCOCC1` [Compound 119, (2S,4R)-1-((S)-2-(2-(2-(3-(4-(3′-(((4,6-dimethyl-2-oxo-1,2-dihydropyridin-3-yl)methyl)carbamoyl)-5′-(ethyl(tetrahydro-2H-pyran-4-yl)amino)-4′-methyl-[1,1′-biphenyl]-4-yl)piperazin-1-yl)propoxy)ethoxy)acetamido)-3,3-dimethylbutanoyl)-4-hydroxy-N-((S)-1-(4-(4-methylthiazol-5-yl)phenyl)ethyl)pyrrolidine-2-carboxamide] as the compound, how does the “percent target protein degradation class” value read?
Its value is “B (B = degradation between 30% and 60%)”.

For `CCN(c1cc(-c2ccc(OCCCCOCC(=O)N[C@H](C(=O)N3C[C@H](O)C[C@H]3C(=O)N[C@@H](C)c3ccc(-c4scnc4C)cc3)C(C)(C)C)cc2)cc(C(=O)NCc2c(C)cc(C)[nH]c2=O)c1C)C1CCOCC1` [Compound 93], which “percent target protein degradation class” value is on record?
Its value is “A (A = degradation more than 60%)”.

For `CCN(c1cc(-c2ccc(OCCCN3CCN(c4ccc5c(c4)C(=O)N(C4CCC(=O)NC4=O)C5=O)CC3)cc2)cc(C(=O)NCc2c(C)cc(C)[nH]c2=O)c1C)C1CCOCC1` (stereo not drawn) [Compound 61, N-[(4,6-dimethyl-2-oxo-1,2-dihydropyridin-3-yl)methyl]-5-[4-(3-{4-[2-(2,6-dioxopiperidin-3-yl)-1,3-dioxo-2,3-dihydro-1H-isoindol-5-yl]piperazin-1-yl}propoxy)phenyl]-3-[ethyl(oxan-4-yl)amino]-2-methylbenzamide], which “percent target protein degradation class” value is on record?
Its value is “B (B = degradation between 30% and 60%)”.

How did the “percent target protein degradation class” value turn out when `CCN(c1cc(-c2ccc(OCCCCOc3ccc4c(c3)C(=O)N([C@@H](C(=O)N3C[C@H](O)C[C@H]3C(=O)N[C@@H](C)c3ccc(-c5scnc5C)cc3)C(C)C)C4)cc2)cc(C(=O)NCc2c(C)cc(C)[nH]c2=O)c1C)C1CCOCC1` [Compound 101, (2S,4R)-1-((R)-2-(6-(4-((3′-(((4,6-dimethyl-2-oxo-1,2-dihydropyridin-3-yl)methyl)carbamoyl)-5′-(ethyl(tetrahydro-2H-pyran-4-yl)amino)-4′-methyl-[1,1′-biphenyl]-4-yl)oxy)butoxy)-1-oxoisoindolin-2-yl)-3-methylbutanoyl)-4-hydroxy-N-((S)-1-(4-(4-methylthiazol-5-yl)phenyl)ethyl)pyrrolidine-2-carboxamide] was run?
Its value is “B (B = degradation between 30% and 60%)”.

How did the “percent target protein degradation class” value turn out when `CCN(c1cc(-c2ccc(OCCOCCOc3cc(C(C(=O)N4C[C@H](O)C[C@H]4C(=O)N[C@@H](C)c4ccc(-c5scnc5C)cc4)C(C)C)on3)cc2)cc(C(=O)NCc2c(C)cc(C)[nH]c2=O)c1C)C1CCOCC1` (stereo partly drawn) [Compound 105] was run?
Its value is “A (A = degradation more than 60%)”.

Which “percent target protein degradation class” value does the source give for `CCN(c1cc(-c2ccc(OCCOc3cc(-c4scnc4C)ccc3CNC(=O)[C@@H]3C[C@@H](O)CN3C(=O)[C@H](C(C)C)N3Cc4ccccc4C3=O)cc2)cc(C(=O)NCc2c(C)cc(C)[nH]c2=O)c1C)C1CCOCC1` [Compound 64, N-[(2-{2-[4-(3-{[(4,6-dimethyl-2-oxo-1,2-dihydropyridin-3-yl)methyl]carbamoyl}-5-[ethyl(oxan-4-yl)amino]-4-methylphenyl)phenoxy]ethoxy}-4-(4-methyl-1,3-thiazol-5-yl)phenyl)methyl]-4-hydroxy-1-[3-methyl-2-(1-oxo-2,3-dihydro-1H-isoindol-2-yl)butanoyl]pyrrolidine-2-carboxamide] here?
The value was “B (B = degradation between 30% and 60%)”.

With `CCN(c1cc(-c2ccc(OCCOCCOCCOCCOCCOCCOCCOCCNc3cccc4c3C(=O)N(C3CCC(=O)NC3=O)C4=O)cc2)cc(C(=O)NCc2c(C)cc(C)[nH]c2=O)c1C)C1CCOCC1` (stereo not drawn) [Compound 22, N-[(4,6-dimethyl-2-oxo-1,2-dihydropyridin-3-yl)methyl]-5-[4-({1-[2-(2,6-dioxopiperidin-3-yl)-1,3-dioxo-2,3-dihydro-1H-isoindol-4-yl]-4,7,10,13,16,19,22-heptaoxa-1-azatetracosan-24-yl}oxy)phenyl]-3-[ethyl(oxan-4-yl)amino]-2-methylbenzamide] as the compound, how does the “percent target protein degradation class” value read?
Its value is “B (B = degradation between 30% and 60%)”.

How did the “percent target protein degradation class” value turn out when `CCN(c1cc(-c2ccc(OCCOCCCOc3ccc4c(c3)C(=O)N(C3CCC(=O)NC3=O)C4=O)cc2)cc(C(=O)NCc2c(C)cc(C)[nH]c2=O)c1C)C1CCOCC1` (stereo not drawn) [Compound 58, N-[(4,6-dimethyl-2-oxo-1,2-dihydropyridin-3-yl)methyl]-5-{4-[2-(3-{[2-(2,6-dioxopiperidin-3-yl)-1,3-dioxo-2,3-dihydro-1H-isoindol-5-yl]oxy}propoxy)ethoxy]phenyl}-3-[ethyl(oxan-4-yl)amino]-2-methylbenzamide] was run?
Its value is “A (A = degradation more than 60%)”.

With `CCN(c1cc(-c2ccc(CCCOCCOCC(=O)N[C@H](C(=O)N3C[C@H](O)C[C@H]3C(=O)N[C@@H](C)c3ccc(-c4scnc4C)cc3)C(C)(C)C)cc2)cc(C(=O)NCc2c(C)cc(C)[nH]c2=O)c1C)C1CCOCC1` [Compound 89] as the compound, how does the “percent target protein degradation class” value read?
Its value is “A (A = degradation more than 60%)”.

Which “percent target protein degradation class” value does the source give for `CCN(c1cc(-c2ccc(OCCOCCOCCOc3cc(-c4scnc4C)ccc3CNC(=O)[C@@H]3C[C@@H](O)CN3C(=O)[C@H](C(C)C)N3Cc4ccccc4C3=O)cc2)cc(C(=O)NCc2c(C)cc(C)[nH]c2=O)c1C)C1CCOCC1` [Compound 37, (2S,4R)-N-({2-[2-(2-{2-[4(3-{[(4,6-dimethyl-2-oxo-1,2-dihydropyridin-3-yl)methyl]carbamoyl}-5-[ethyl(oxan-4-yl)amino]-4-methylphenyl)phenoxy]ethoxy}ethoxy)ethoxy]-4-(4-methyl-1,3-thiazol-5-yl)phenyl}methyl)-4-hydroxy-1-[(2S)-3-methyl-2-(1-oxo-2,3-dihydro-1H-isoindol-2-yl)butanoyl]pyrrolidine-2-carboxamide] here?
Its value is “A (A = degradation more than 60%)”.

With `CCN(c1cc(-c2ccc(OCCOCCOCCOCCNc3cccc4c3C(=O)N(C3CCC(=O)NC3=O)C4=O)cc2)cc(C(=O)NCc2c(C)cc(C)[nH]c2=O)c1C)C1CCOCC1` (stereo not drawn) [Compound 17, N-[(4,6-dimethyl-2-oxo-1,2-dihydropyridin-3-yl)methyl]-5-[4-({1-[2-(2,6-dioxopiperidin-3-yl)-1,3-dioxo-2,3-dihydro-1H-isoindol-4-yl]-4,7,10-trioxa-1-azadodecan-12-yl}oxy)phenyl]-3-[ethyl(oxan-4-yl)amino]-2-methylbenzamide] as the compound, how does the “percent target protein degradation class” value read?
Its value is “B (B = degradation between 30% and 60%)”.

For `CCN(c1cc(-c2ccc(OCCCOc3cc(-c4scnc4C)ccc3CNC(=O)[C@@H]3C[C@@H](O)CN3C(=O)[C@H](C(C)C)N3Cc4ccccc4C3=O)cc2)cc(C(=O)NCc2c(C)cc(C)[nH]c2=O)c1C)C1CCOCC1` [Compound 90, (2S,4R)-N-(2-(3-((3′-(((4,6-dimethyl-2-oxo-1,2-dihydropyridin-3-yl)methyl)carbamoyl)-5′-(ethyl(tetrahydro-2H-pyran-4-yl)amino)-4′-methyl-[1,1′-biphenyl]-4-yl)oxy)propoxy)-4-(4-methylthiazol-5-yl)benzyl)-4-hydroxy-1-((S)-3-methyl-2-(1-oxoisoindolin-2-yl)butanoyl)pyrrolidine-2-carboxamide], which “percent target protein degradation class” value is on record?
The value was “B (B = degradation between 30% and 60%)”.
